Converted amounts (≈) assume the structure as drawn. Positions of bridges follow the written chain, without caps; N, C: chain ends. Residues, ends and D or L forms follow the SMILES beside them. Chains are numbered I, II in the order given.
Experiments:
[1] = tested on: S. aureus cytoplasmic membrane; assay: Membrane depolarization assay, DiSC3-(5) dye; assay type: cell-based, Staphylococcus aureus; conditions: intact S. aureus; 32 µM F2, 4 µM melittin, 16 µM buforin-2; peptide added after 300 s; Figure 2
Method: The cytoplasmic membrane depolarization activity of the peptides was assessed using the membrane-potential-sensitive dye DiSC3-(5), following methodologies previously described in the literature. Staphylococcus aureus was cultured in Luria–Bertani (LB) broth at 37 °C until reaching an optical density (O.D.) at 600 nm of 0.3–0.4, indicative of mid-logarithmic phase growth. The cells were then washed with a buffer containing 20 mM glucose and 5 mM HEPES, and the cell suspension was diluted to an O.D. 600 of 0.05 in the same buffer. Potassium chloride (KCl) was added to achieve a final concentration of 100 mM to equilibrate potassium ion levels. The concentrations used for each peptide in our membrane depolarization assays were based on their respective MICs: 32 µM for F2, 4 µM for Melittin, and 16 µM for Buferin-2.
Fluorescence was monitored using an F-4500 FL fluorescence spectrophotometer (Shimadzu, Kyoto, Japan) with excitation and emission wavelengths set at 622 nm and 670 nm, respectively. Melittin, known for its membrane-disrupting properties, served as a positive control, while buforin-2, which translocates across membranes without causing depolarization, acted as a negative control. Both melittin and buforin-2 were tested at concentrations twice their minimal inhibitory concentration (MIC) levels.

Pseudomonas aeruginosa = assay type: cell-based; conditions: 24 h
Method: (§1) The minimal inhibitory concentrations (MICs) of the peptides were determined following the broth microdilution method recommended by the Clinical and Laboratory Standards Institute (CLSI). Briefly, bacteria in their mid-logarithmic growth phase were diluted in Mueller–Hinton broth (MHB) (Difco, Franklin Lakes, NJ, USA) and aliquoted into a 96-well microtiter plate at a density of 4 × 10^6 CFU/well. The assay included both Gram-negative bacteria (Escherichia coli, Salmonella typhimurium, and Pseudomonas aeruginosa) and Gram-positive bacteria (Bacillus subtilis, Staphylococcus aureus, and Staphylococcus epidermidis), as well as methicillin-resistant Staphylococcus aureus strains (MRSA: CCARM 3089, CCARM 3090, CCARM 3095). The samples were subjected to a two-fold serial dilution before being added to the wells, and the plate was incubated at 37 °C for 24 h. The MIC was defined as the lowest peptide concentration that prevented visible bacterial growth. All experiments were conducted in triplicate and included appropriate growth and sterility controls.

Salmonella typhimurium = assay type: cell-based; conditions: murium, 24 h
Method: as §1

Staphylococcus aureus = assay type: cell-based; conditions: 24 h
Method: as §1

Bacillus subtilis = assay type: cell-based; conditions: 24 h
Method: as §1

Escherichia coli = assay type: cell-based; conditions: 24 h
Method: as §1

[2] = tested on: Staphylococcus epidermidis; assay type: cell-based; conditions: 24 h
Method: as §1

bacterial strains = assay type: cell-based; conditions: strain not given; see Tables 1 and 2
Method: as §1

S. aureus cell membranes = assay: SYTOX Green uptake assay; assay type: cell-based, Staphylococcus aureus; conditions: 32 µM F2, 4 µM melittin, 16 µM buforin-2, Figure 3
Method: The membrane permeabilization activity of the peptides was determined using the SYTOX Green uptake assay, as described previously. S. aureus was cultured in LB broth at 37 °C until it reached an optical density (O.D.) at 600 nm of 0.4, indicative of the mid-logarithmic phase. The cells were then washed and diluted to an O.D. 600 of 0.05 using 1× PBS buffer. The dye (SYTOX Green nucleic acid stain) was added to the bacterial suspension at a concentration of […], and the mixture was incubated at 4 °C for 18 h with agitation in the dark. The SYTOX Green-treated bacteria were placed in a quartz cell, where they were simultaneously exposed to the positive control melittin (2× MIC), the negative control buforin-2 (2× MIC), and the F2 dimer (2× MIC). An F-4500 FL fluorescence spectrophotometer (Shimadzu, Kyoto, Japan) was used to monitor fluorescence (excitation 485 nm, emission 520 nm).

MRSA CCARM 3095 = assay type: cell-based, methicillin-resistant Staphylococcus aureus; conditions: CCARM 3095, 24 h
Method: as §1

MRSA CCARM 3089 = assay type: cell-based, methicillin-resistant Staphylococcus aureus; conditions: CCARM 3089, 24 h
Method: as §1

MRSA CCARM 3090 = assay type: cell-based, methicillin-resistant Staphylococcus aureus; conditions: CCARM 3090, 24 h
Method: as §1

E. coli ML-35 = assay: ONPG hydrolysis assay (inner membrane permeability); assay type: cell-based, Escherichia coli; conditions: 32 µM F2, 4 µM melittin, 16 µM buforin-2, Figure 4
Method: The internal membrane permeability was assessed using the ONPG hydrolysis assay, as described previously. E. coli ML-35p, which constitutively expresses cytoplasmic β-galactosidase and periplasmic β-lactamase, is resistant to ampicillin and deficient in lactose permease. E. coli ML-35 was incubated in LB broth containing ampicillin at 37 °C until the optical density (O.D.) at 600 nm reached 1.0. The cells were then washed with a buffer consisting of 97% 1× PBS and 3% LB and diluted to an O.D. 600 of 0.4 in the same buffer. A mixture of 50 μL of serially diluted peptide and 20 μL of dye (ONPG, final concentration 3 mM) was added to 100 μL of the bacterial suspension in a sterilized 96-well plate. Melittin served as a positive control, while buforin-2 was used as a negative control. The hydrolysis of ONPG was measured using a PHOMO Elisa reader (Autobio, Zhengzhou, China) at 405 nm for each time period.

plasmid DNA (pHIS2) = assay: DNA-binding gel retardation assay; conditions: plasmid pHIS2 145 μg/mL, 37 °C, 1 h, 1% agarose gel; Figure 5
Method: We evaluated the DNA-binding ability of F2 and F2 (C4S) monomeric peptides using gel retardation experiments. The concentration of plasmid DNA (pHIS2) was fixed at 145 μg/mL. The peptide was serially diluted in a binding buffer consisting of 10 mM Tris-HCl (pH 8.0), 5% glucose, 50 μg/mL BSA, 1 mM EDTA, and 20 mM KCl. This solution was then mixed with the DNA and incubated at 37 °C for 1 h. After incubation, the DNA–peptide mixture was stained with DNA gel loading dye. The samples were analyzed using 1% agarose gel electrophoresis in 0.5× TAE buffer. Plasmid bands were detected with a UV illuminator (Bio-Rad, Hercules, CA, USA).

[3] = target: F2 (rattusin fragment, residues 12-18, dimeric hairpin loop region) (rat); assay: RP-HPLC; monomeric F2 (before disulfide bonding) incubated in MIC buffer; formation of the disulfide-bonded dimer monitored by RP-HPLC

| Molecule | cytoplasmic membrane depolarization (DiSC3-(5) fluorescence) [1] | MIC (Pseudomonas aeruginosa) | MIC (Salmonella typhimurium) | MIC (Staphylococcus aureus) | MIC (Bacillus subtilis) | MIC (Escherichia coli) | MIC [2] | MIC (bacterial strains) | SYTOX Green uptake (fluorescence intensity) (S. aureus cell membranes) | MIC (MRSA CCARM 3095) | MIC (MRSA CCARM 3089) | MIC (MRSA CCARM 3090) | ONPG hydrolysis (absorbance at 405 nm) (E. coli ML-35) | peptide concentration giving DNA band retardation (plasmid DNA (pHIS2)) | stoichiometry N [3] |
| --- | --- | --- | --- | --- | --- | --- | --- | --- | --- | --- | --- | --- | --- | --- | --- |
| CC(C)[C@H](NC(=O)[C@H](CCCNC(=N)N)NC(=O)[C@@H](N)CCCNC(=N)N)C(=O)N[C@@H](CSSC[C@H](NC(=O)[C@@H](NC(=O)[C@H](CCCNC(=N)N)NC(=O)[C@@H](N)CCCNC(=N)N)C(C)C)C(=O)N[C@@H](CCCNC(=N)N)C(=O)N[C@@H](CC(N)=O)C(=O)N[C@H](C(N)=O)[C@@H](C)O)C(=O)N[C@@H](CCCNC(=N)N)C(=O)N[C@@H](CC(N)=O)C(=O)N[C@H](C(N)=O)[C@@H](C)O [F2] (I: H-RRVCRNT-NH2 / II: H-RRVCRNT-NH2; disulfide I:4-II:4; N-terminus assumed) | did not cause any membrane depolarization | 15 µg/mL (≈ 8.31 µM) | 15 µg/mL (≈ 8.31 µM) | 58 µg/mL (≈ 32.1 µM) | 29 µg/mL (≈ 16.1 µM) | 15 µg/mL (≈ 8.31 µM) | 15 µg/mL (≈ 8.31 µM) | 15 µg/mL (≈ 8.31 µM) | did not show a similar increase in fluorescence intensity | 58 µg/mL (≈ 32.1 µM) | 58 µg/mL (≈ 32.1 µM) | 116 µg/mL (≈ 64.3 µM) | did not alter the absorbance | 4 µM |  |
| F2 (rattusin fragment, residues 12-18, dimeric hairpin loop region) (peptide) |  |  |  |  |  |  |  |  |  |  |  |  |  |  | 2 |

From paper PMC11201828, “A Novel Dimeric Short Peptide Derived from α-Defensin-Related Rattusin with Improved Antimicrobial and DNA-Binding Activities” (Biomolecules, 2024)
